Test results reported in patent US6165998A, “Antifungal agents” (Scriptgen Pharmaceuticals, Inc., priority 1998, dated 2000).
Values after ≈ are worked out from the molar mass of the structure shown. Read-outs that look alike come from different tables or passages of the source.

Tests used:
[1] = molecular target: T1, C. albicans RNA polymerase II (Candida albicans, UniProt A0A1D8PUA6+Q5A8Y5); assay: biochemical; conditions: for IC50: read-out: IC50 Candida pol II; for inhibition at 20 µM: screening of azo library
T1 construct: RNA elongation assay on calf thymus DNA
T1 sequence (A0A1D8PUA6 1-1728): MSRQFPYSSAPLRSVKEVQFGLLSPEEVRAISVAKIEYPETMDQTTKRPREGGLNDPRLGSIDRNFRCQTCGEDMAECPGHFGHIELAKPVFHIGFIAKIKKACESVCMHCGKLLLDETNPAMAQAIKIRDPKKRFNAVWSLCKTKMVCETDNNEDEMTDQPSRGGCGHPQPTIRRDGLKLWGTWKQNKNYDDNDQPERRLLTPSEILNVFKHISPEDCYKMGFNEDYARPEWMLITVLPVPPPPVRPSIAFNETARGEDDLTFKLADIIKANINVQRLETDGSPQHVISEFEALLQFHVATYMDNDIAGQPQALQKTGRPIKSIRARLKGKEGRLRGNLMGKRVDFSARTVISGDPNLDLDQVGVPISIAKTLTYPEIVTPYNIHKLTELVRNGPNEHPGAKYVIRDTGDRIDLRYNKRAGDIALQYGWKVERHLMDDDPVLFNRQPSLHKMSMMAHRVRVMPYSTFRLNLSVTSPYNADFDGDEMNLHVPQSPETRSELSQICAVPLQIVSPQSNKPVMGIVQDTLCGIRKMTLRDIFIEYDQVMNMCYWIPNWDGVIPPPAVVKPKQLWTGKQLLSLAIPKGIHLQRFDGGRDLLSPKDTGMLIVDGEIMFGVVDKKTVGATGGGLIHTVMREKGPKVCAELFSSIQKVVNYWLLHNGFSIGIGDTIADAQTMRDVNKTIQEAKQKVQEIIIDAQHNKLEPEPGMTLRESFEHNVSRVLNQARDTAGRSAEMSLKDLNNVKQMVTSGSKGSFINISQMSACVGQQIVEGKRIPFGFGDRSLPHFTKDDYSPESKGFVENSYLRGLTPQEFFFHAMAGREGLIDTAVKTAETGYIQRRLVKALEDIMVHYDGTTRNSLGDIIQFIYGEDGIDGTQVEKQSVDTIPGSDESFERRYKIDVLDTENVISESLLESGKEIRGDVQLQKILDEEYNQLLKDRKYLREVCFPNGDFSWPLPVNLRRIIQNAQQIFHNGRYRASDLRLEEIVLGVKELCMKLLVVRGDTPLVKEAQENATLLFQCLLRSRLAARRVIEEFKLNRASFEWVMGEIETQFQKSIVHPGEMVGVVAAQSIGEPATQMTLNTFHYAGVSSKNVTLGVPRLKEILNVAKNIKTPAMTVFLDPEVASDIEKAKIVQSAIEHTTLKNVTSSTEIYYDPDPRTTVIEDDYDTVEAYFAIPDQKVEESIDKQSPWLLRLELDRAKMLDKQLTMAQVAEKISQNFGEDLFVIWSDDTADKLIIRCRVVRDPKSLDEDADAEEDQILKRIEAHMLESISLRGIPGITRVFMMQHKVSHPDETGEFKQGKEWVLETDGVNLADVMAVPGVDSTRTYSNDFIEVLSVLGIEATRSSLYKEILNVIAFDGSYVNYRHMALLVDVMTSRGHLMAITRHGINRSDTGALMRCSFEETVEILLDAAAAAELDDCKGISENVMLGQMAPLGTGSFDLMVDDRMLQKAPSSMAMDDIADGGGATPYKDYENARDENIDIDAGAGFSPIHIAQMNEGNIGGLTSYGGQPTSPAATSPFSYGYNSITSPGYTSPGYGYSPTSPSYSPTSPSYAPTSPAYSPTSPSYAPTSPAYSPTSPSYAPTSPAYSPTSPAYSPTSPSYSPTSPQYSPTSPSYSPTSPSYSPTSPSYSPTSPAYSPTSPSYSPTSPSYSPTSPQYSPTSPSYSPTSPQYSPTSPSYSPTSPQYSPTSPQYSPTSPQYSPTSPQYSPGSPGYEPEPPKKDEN
T1 sequence (Q5A8Y5 1-1234): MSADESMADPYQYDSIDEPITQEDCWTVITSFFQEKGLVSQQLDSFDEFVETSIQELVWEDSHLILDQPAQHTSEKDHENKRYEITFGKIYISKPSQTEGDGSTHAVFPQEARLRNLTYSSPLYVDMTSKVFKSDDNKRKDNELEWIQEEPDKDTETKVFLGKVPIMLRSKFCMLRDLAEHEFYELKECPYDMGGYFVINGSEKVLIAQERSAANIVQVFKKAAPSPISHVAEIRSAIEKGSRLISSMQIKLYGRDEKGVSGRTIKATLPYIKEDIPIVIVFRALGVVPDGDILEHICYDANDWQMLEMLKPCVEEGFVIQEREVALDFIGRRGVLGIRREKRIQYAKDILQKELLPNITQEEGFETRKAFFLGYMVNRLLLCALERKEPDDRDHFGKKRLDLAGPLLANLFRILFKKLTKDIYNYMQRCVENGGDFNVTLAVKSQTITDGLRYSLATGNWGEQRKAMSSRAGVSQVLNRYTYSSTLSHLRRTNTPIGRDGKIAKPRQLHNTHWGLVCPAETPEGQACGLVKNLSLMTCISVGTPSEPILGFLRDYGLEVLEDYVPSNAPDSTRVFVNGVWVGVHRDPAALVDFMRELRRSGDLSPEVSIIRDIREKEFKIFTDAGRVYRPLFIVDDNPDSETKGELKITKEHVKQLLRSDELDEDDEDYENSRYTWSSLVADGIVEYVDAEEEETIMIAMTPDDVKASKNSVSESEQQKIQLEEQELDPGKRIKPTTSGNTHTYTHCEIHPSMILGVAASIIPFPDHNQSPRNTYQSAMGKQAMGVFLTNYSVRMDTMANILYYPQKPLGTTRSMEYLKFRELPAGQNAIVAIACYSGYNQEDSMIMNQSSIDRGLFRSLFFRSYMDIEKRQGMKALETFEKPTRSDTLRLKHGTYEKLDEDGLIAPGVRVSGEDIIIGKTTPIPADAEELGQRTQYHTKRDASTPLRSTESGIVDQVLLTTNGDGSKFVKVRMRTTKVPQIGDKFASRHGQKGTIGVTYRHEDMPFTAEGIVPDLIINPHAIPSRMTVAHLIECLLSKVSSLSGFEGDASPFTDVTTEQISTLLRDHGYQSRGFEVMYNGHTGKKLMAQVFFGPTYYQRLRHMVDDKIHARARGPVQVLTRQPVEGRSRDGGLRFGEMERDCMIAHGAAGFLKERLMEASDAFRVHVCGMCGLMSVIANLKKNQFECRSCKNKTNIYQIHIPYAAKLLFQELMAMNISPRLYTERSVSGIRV
Method: (§1) The following procedure is used for cell-free high-throughput screening. A Tomtec Quadra 96-well pipetting station is used to add the reaction components to polypropylene 96-well dishes. 5 μl aliquots of test compounds dissolved in DMSO (or DMSO alone as a control) are added to wells. This is followed by 20 μl of the RNA polymerase II mixture, which consists of: 10 mM DTT, 200 mM KCl, 10 mM Mn^+2, 1.5 μM bovine serum albumin, and 0.25 μg reconstituted RNA polymerase. After allowing the test compound to interact with the RNA polymerase, 25 μl of the DNA/NTP mixture is added, containing: 1 μg calf thymus DNA, 4 μM [α-^32 P]-UTP, and 400 μM each CTP, ATP, and GTP.
(§2) After incubation for 60 min at 30 C, the reaction is stopped by addition of 50 μl 15% trichloroacetic acid (TCA). The TCA-precipitated RNA is adsorbed onto double-thick glass fiber filtermats using a Tomtec cell harvester. The wells of the microtiter plate and the filter are washed twice with 5% TCA and bound radioactivity is determined using a Wallac microbeta 1450 scintillation counter.
(§3) Inhibitory activity due to the test compound is calculated according to the formula: [formula] where cpmpositive control represents the average of the cpm in wells that received DMSO alone, and cpmsample represents the cpm in the well that received test compound. Compounds that cause at least 50% inhibition are scored as positive "hits" in this assay.
(§4) DNA-directed RNA polymerase II from Candida albicans was purified in sufficient quantity to support high throughput screening of large synthetic chemical and natural product libraries. A biochemical mechanism-based screen for detecting inhibitors of Pol II was developed and implemented. The screen is outlined in FIGS. 4A and 4B.

human Pol II = molecular target: T2, human Pol II (Homo sapiens, UniProt P24928+P30876); assay: RNA polymerase II counterscreen, human pol II; assay type: biochemical
T2 construct: Pol II was isolated from Aspergillus nidulans, Saccharomyces cerevisiae, and human cells; endogenous in cells; enzyme isolated from them
Method: Pol II was isolated from Aspergillus nidulans, Saccharomyces cerevisiae, and human cells (FIG. 5) and used in secondary screens for fungal spectrum and specificity. Pol I and Pol III were isolated from Candida albicans and used as an additional mechanism to study specificity. Confirmed hits form the primary assay and were evaluated against this panel of polymerases. Agents with activity against Pol II from multiple fungal enzymes but not against the human counterpart were evaluated in vitro against fungal pathogens.

C. albicans = assay: Time course of fungicidal activity, C. albicans; assay type: cell-based, Candida albicans; conditions: C. albicans cells
Description: (§5) Compound 1 is rapidly fungicidal.

S. cerevisiae = assay: Time course of fungicidal activity, S. cerevisiae; assay type: cell-based, Saccharomyces cerevisiae; conditions: S. cerevisiae cells
Description: as §5

[2] = tested on: systemic Candida infection; assay: Murine model for systemic candidiasis; assay type: in vivo, mouse
Method: (§6) In addition, Compound 1 was efficacious in a murine model for systemic candidiasis (FIG. 10). It prolonged mean and median survival times of treated mice in the dosage range of 5 mg/kg/d to 100 mg/kg/d on aq.d., d2-11 schedule. […] The efficacy of Compound 1 was confirmed in a separate experiment using amphotericin as a control (FIG. 11). Compound 1 was also efficacious when administered orally to mice with an established systemic Candida infection (FIG. 12). […] Compound 1 is also effective against systemic candidiasis caused by a strain of C. albicans resistant to fluconazole (FIG. 13). Additional animal testing will include acute toxicity determination, route and schedule dependency in standard efficacy models, efficacy testing in immunosuppressed Candida infected mice, efficacy in an Aspergillus infection model, and pharmacokinetics following IV and oral dosing.
(§7) Compound 6 was evaluated for antifungal efficacy in a systemic candidiasis model in immunocompetent mice (FIG. 18). The compound was administered IP on a q.d., d2-11 schedule. […] 90% long term survival was seen formice treated with Compound 6 at 200/mg/kg. 30% of mice survived when treated with Compound 6 at 100 mg/kg/d. Compound 6 was also effective against systemic candidiasis when administered orally (FIG. 19) and it was effective in treating infections caused by fluconazole-resistant C. albicans.

[3] = tested on: C. albicans RNA polymerase II; assay: biochemical
Method: as §1, §2, §3, §4

[4] = Compound-related toxicity in treated mice; assay type: in vivo, mouse; conditions: IP, q.d., d2-11, any of the treatment groups, immunocompetent mice
Method: as §6, §7

[5] = tested on: C. albicans resistant to fluconazole; assay: Systemic candidiasis caused by fluconazole-resistant C. albicans; conditions: mouse, in vivo
Method: as §6, §7

fungal pathogens = assay: In vitro antifungal activity (MIC); assay type: cell-based
[6] = Table 2, read-out: IC50 Human pol II
[7] = Table 1, read-out: IC50 Human pol II
[8] = 1.5 μg/ml, similar time (45 minutes)
[9] = listed as stilbene isostere of Compound 1

OB(O)c1cc(C=Cc2cccc(C(F)(F)F)c2)ccc1O [Compound 27] gave an IC50 ([1]; Table 2) of 58 µM and an IC50 (human Pol II; [6]) of 136 µM.
For Oc1ccc(CCc2cccc(C(F)(F)F)c2)cc1 [CH2 CH2], the IC50 ([1]; Table 1) was 230 µM and the IC50 (human Pol II; [7]) was over 2000 µM.
In the case of O=[N+]([O-])c1cccc(N=Nc2ccc(O)cc2)c1 [Compound 12, 4-[-2-[3-(nitro)phenyl]diazenyl]phenol], the inhibition at 20 µM [1] is reported as 45%.
Compound “4-[-2-[3-(trifluoromethyl)phenyl]diazenyl]-2-hydroxy-phenol [Compound 4]” has an IC50 ([1]; Table 2) of 70 µM and an IC50 (human Pol II; [6]) of 230 µM.
O=C(Nc1ccc(O)cc1)c1cccc(C(F)(F)F)c1 [CONH] gave an IC50 ([1]; Table 1) of 51 µM and an IC50 (human Pol II; [7]) of 500 µM.
With N#Cc1cc(N=Nc2cccc(C(F)(F)F)c2)ccc1O [Compound 18, 4-[-2-[3-(trifluoromethyl)phenyl]diazenyl]-2-cyano-phenol] the inhibition at 20 µM [1] was 37%.
For Oc1ccc(N=Nc2ccc(F)c(C(F)(F)F)c2)cc1 [Compound 14], the inhibition at 20 µM [1] was 42%.
Work on OCc1cc(N=Nc2cccc(C(F)(F)F)c2)ccc1O [Compound 19, 4-[-2-[3-(tnfluoromethyl)phenyl]diazenyl]-2-(hydroxymethyl)-phenol] yielded an inhibition at 20 µM [1] of 33%.
With N#Cc1cc(O)ccc1N=Nc1cccc(C(F)(F)F)c1 [Compound 20, 4-[-2-[3-(trifluoromethyl)phenyl]diazenyl]-3-cyano-phenol] the inhibition at 20 µM [1] was 28%.
With Oc1ccc(N=Nc2cc(C(F)(F)F)cc(C(F)(F)F)c2)cc1 [Compound 16, 4-[-2-[3,5-(di-trifluoromethyl)phenyl]diazenyl]phenol] the inhibition at 20 µM [1] was 28%.
In the case of C[C@@H]1[C@H](O)[C@@H](C)/C=C/C=C/C=C/C=C/C=C/C=C/C=C/[C@H](O[C@@H]2O[C@H](C)[C@@H](O)[C@H](N)[C@@H]2O)C[C@@H]2O[C@](O)(C[C@@H](O)C[C@@H](O)[C@H](O)CC[C@@H](O)C[C@@H](O)CC(=O)O[C@H]1C)C[C@H](O)[C@H]2C(=O)O [amphotericin B, reference compound], the “exposure time after which no CFUs are recoverable” value (C. albicans) is reported as about 30 min, the “colony forming units after exposure” value (C. albicans; [8]) is reported as “no colony forming units are detected” and the “exposure time after which no CFUs are recoverable” value (S. cerevisiae) is reported as about 30 min. The “colony forming units after exposure” value (S. cerevisiae; [8]) was “no colony forming units are detected”.
Work on O=C(Nc1cccc(C(F)(F)F)c1)c1ccc(OCc2ccccc2)cc1 [Compound 29, 4-benzoxy-N-[3-(trifluoromethyl)phenyl]benzamide] yielded an IC50 ([1]; Table 2) of over 2000 µM and an IC50 (human Pol II; [6]) of over 2000 µM.
In the case of Cc1cc(O)ccc1N=Nc1cccc(C(F)(F)F)c1 [Compound 22, 4[-2-[3-(trifluoromethyl)phenyl]diazenyl]-3-methyl-phenol], the inhibition at 20 µM [1] is reported as 42%.
Compound Oc1ccc(C=Cc2cccc(C(F)(F)F)c2)cc1Br [Compound 26, 4-[-2-[3-(trifluoromethyl)phenyl]ethenyl]-2-bromo-phenol] has an IC50 ([1]; Table 2) of 42 µM and an IC50 (human Pol II; [6]) of 84 µM.
In the case of Oc1ccc(N=Nc2cccc(Cl)c2)cc1 [Compound 11, 4-[-2-[3-(chloro)phenyl]diazenyl]phenol], the inhibition at 20 µM [1] is reported as 50%.
COc1ccc(N=Nc2cccc(C(F)(F)F)c2)cc1 [Compound 3, 4-[-2-[3-(trifluoromethyl)phenyl]diazenyl]-anisole] gave an IC50 ([1]; Table 2) of over 2000 µM and an IC50 (human Pol II; [6]) of over 2000 µM.
COCOc1ccc(C=Cc2cccc(C(F)(F)F)c2)cc1 [Compound 25, 4-[-2-[3-(trifluorometbyl)phenyl]ethenyl]-methoxymethoxyl phenyl] gave an IC50 ([1]; Table 2) of over 2000 µM and an IC50 (human Pol II; [6]) of over 2000 µM.
In the case of Oc1ccc(N=Nc2cccc(C(F)(F)F)c2F)cc1 [Compound 13, 4-[-2-[2-fluoro-3-(trifluoromethyl)phenyl]diazenyl]phenol], the inhibition at 20 µM [1] is reported as 38%.
For OC(Cn1cncn1)(Cn1cncn1)c1ccc(F)cc1F [fluconazole, reference compound], the “recoverable colonies from the kidneys of treated animals” value ([2]; systemic candidiasis, mice) was “reduced”.
For O=C(O)c1cc(N=Nc2cccc(C(F)(F)F)c2)ccc1O [Compound 9, 5-[-2-[3-(trifluoromethyl)phenyl]diazenyl]-2-hydroxy-benzoic acid], the IC50 ([1]; Table 2) was 193 µM and the IC50 (human Pol II; [6]) was 148 µM.
OCc1cc(O)ccc1N=Nc1cccc(C(F)(F)F)c1 [Compound 21, 4-[-2-[3-(trifluoromethyl)phenyl]diazenyl]-3-(hydroxymethyl)-phenol] gave an inhibition at 20 µM [1] of 39%.
In the case of COc1ccc(C=Cc2cccc(C(F)(F)F)c2)cc1 [Compound 24, 4-[-2-[3-(trifluoromethyl)-phenyl]ethenyl]-anisole], the IC50 ([1]; Table 2) is reported as over 2000 µM and the IC50 (human Pol II; [6]) is reported as over 2000 µM.
For O=C(O)CN(CCN(CC(=O)O)CC(=O)O)CC(=O)O [EDTA, reference compound], the inhibition at 10 µM ([1]; 1 h, read-out: inhibition of transcription) was at least 90%.
Work on Cc1cccc(N=Nc2ccc(O)cc2)c1 [Compound 5, 4-[-2-[3-(methyl)phenyl]diazenyl]-phenol] yielded an IC50 ([1]; Table 2) of 90 µM and an IC50 (human Pol II; [6]) of 340 µM.
Oc1ccc(N=Nc2cc(C(F)(F)F)ccc2F)cc1 [Compound 15, 4-[-2-[6-fluoro-3-(trifluoromethyl)phenyl]diazenyl]phenol] gave an inhibition at 20 µM [1] of 39%.
For O=[N+]([O-])c1cc(O)ccc1N=Nc1cccc(C(F)(F)F)c1 [Compound 23, 4-[-2-[3-(trifluoromethyl]phenyl)diazenyl]-3-nitro-phenol], the inhibition at 20 µM [1] was 37%.
Compound O=Cc1cc(/N=N/c2cccc(C(F)(F)F)c2)ccc1O [Compound 10, 5-[(E)-2-[3-(trifluoromethyl)phenyl]diazenyl]-2-hydroxy-benzaldehyde] has an IC50 ([1]; Table 2) of 34 µM and an IC50 (human Pol II; [6]) of 82 µM.
Compound O=[N+]([O-])c1cc(N=Nc2cccc(C(F)(F)F)c2)ccc1O [Compound 8, 4-[-2-[3-(trifluoromethyl)phenyl]diazenyl]-2-nitrophenol] has an IC50 ([1]; Table 2) of 103 µM and an IC50 (human Pol II; [6]) of over 2000 µM.
With Oc1ccc(C=Cc2cccc(C(F)(F)F)c2)cc1 [Compound 6, 4-[-2-[3-(trifluoromethyl)phenyl]ethenyl]phenol] the mice survived ([2]; IP q.d. d2-11, 100 mg/kg/d, immunocompetent mice) was 30%, the long term survival ([2]; IP q.d. d2-11, 200/mg/kg, immunocompetent mice) was 90% and the “efficacy against systemic candidiasis when administered orally” value ([2]; oral) was “effective”. The “selectivity for Candida/fungal Pol II relative to human Pol II” value [3] was “selective”, the “selectivity for Candida/fungal Pol II relative to human Pol II” value [3, 9] was “retained selective activity” and the IC50 ([1]; Table 1) was 70 µM. For the same compound, the compound-related toxicity [4] was “no evidence of compound-related toxicity”, the “efficacy against systemic candidiasis caused by fluconazole-resistant C. albicans” value [5] was “effective” and the “in vitro antifungal activity / spectrum” value (fungal pathogens) was “broadly active against fungi”. The MIC (fungal pathogens; Table 1, antifungal activity, read-out: MIC) was 8.2 µg/mL (≈ 31 µM), the “in vitro antifungal activity / spectrum” value (fungal pathogens; [9]) was “had antifungal activity” and the IC50 (human Pol II) was 230 µM.
O=[N+]([O-])c1cc(C(F)(F)F)ccc1N=Nc1ccc(O)cc1 [Compound 7] gave an IC50 ([1]; Table 2) of 190 µM and an IC50 (human Pol II; [6]) of 300 µM.
Compound O=C(Nc1cccc(C(F)(F)F)c1)c1ccc(O)cc1 [Compound 30, 4-hydroxy-N-[3-(trifnuoromethyl)phenyl]benzamide] has an IC50 ([1]; Table 1) of 27 µM and an IC50 (human Pol II; [7]) of 82 µM.
For COc1cc(N=Nc2ccc(O)cc2)cc(C(F)(F)F)c1 [Compound 17], the inhibition at 20 µM [1] was 53%.
